What was measured:
Assay in all cases: relative viability (nuclei count vs DMSO), 5 days (fraction); higher = more cells survive
[1] = compound: C[C@@H](N)c1ccc(C(=O)Nc2ccnc3[nH]ccc23)cc1 + COc1cccc2cc(-c3nc([C@H]4CC[C@H](C(=O)O)CC4)n4ncnc(N)c34)[nH]c12 [OSI-027] (partner 0.5 µM)
Procedure, shortened: (§1)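 Five library-drug doses in √10 steps were combined with a fixed anchor-drug dose, or a single drug was given alone, by pin tool to lung cancer cell lines in 1536-well plates the day after seeding. Nuclei were stained and counted after 5 days. Relative viability is the nuclei count in treated wells over that in vehicle wells, taken as the median of duplicate plates.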

[2] = compound: C1CNCCC1C2=CC(=NN2)C3=CC=NC=C3 + COc1cccc2cc(-c3nc([C@H]4CC[C@H](C(=O)O)CC4)n4ncnc(N)c34)[nH]c12 [OSI-027] (partner 0.5 µM)
Procedure, shortened: as §1

[3] = compound: C1CNCCC1C2=CC(=NN2)C3=CC=NC=C3 + O=C(CCCCCCC(=O)Nc1ccccc1)NO [Vorinostat] (partner 1 µM)
Procedure, shortened: as §1

Tanzisertib + Alpelisib = compound: O[C@H]1CC[C@H](Nc2ncc3nc(Nc4c(F)cc(F)cc4F)n([C@H]4CCOC4)c3n2)CC1 [Tanzisertib] + Cc1nc(NC(=O)N2CCC[C@H]2C(N)=O)sc1-c1ccnc(C(C)(C)C(F)(F)F)c1 [Alpelisib] (partner 2 µM)
Procedure, shortened: as §1

Cell Line | relative viability ([1]; first compound 0.04 µM) | relative viability ([1]; first compound 0.1265 µM) | relative viability ([1]; first compound 0.4 µM) | relative viability ([1]; first compound 1.265 µM) | relative viability ([1]; first compound 4 µM) | relative viability ([2]; first compound 0.08 µM) | relative viability ([2]; first compound 0.8 µM) | relative viability ([2]; first compound 2.53 µM) | relative viability ([2]; first compound 8 µM) | relative viability ([3]; first compound 0.08 µM) | relative viability ([3]; first compound 0.8 µM) | relative viability ([3]; first compound 2.53 µM) | relative viability ([3]; first compound 8 µM) | relative viability (Tanzisertib + Alpelisib; first compound 0.08 µM) | relative viability (Tanzisertib + Alpelisib; first compound 0.253 µM) | relative viability (Tanzisertib + Alpelisib; first compound 0.8 µM) | relative viability (Tanzisertib + Alpelisib; first compound 2.53 µM) | relative viability (Tanzisertib + Alpelisib; first compound 8 µM)
NCI-H2023 | 0.475 | 0.435 | 0.569 | 0.476 | 0.509 | 0.347 | 0.48 | 0.457 | 0.503 | 0.262 | 0.589 | 0.767 | 0.602 | 0.671 | 0.577 | 0.627 | 0.584 | 0.545
NCI-H838 | 0.395 | 0.45 | 0.413 | 0.339 | 0.253 | 0.385 | 0.423 | 0.394 | 0.491 | 0.763 | 0.744 | 0.744 | 0.688 | 1.02 | 1 | 0.92 | 0.965 | 0.973
NCI-H661 | 0.754 | 0.682 | 0.636 | 0.593 | 0.552 | 0.707 | 0.835 | 0.739 | 0.634 | 0.745 | 0.845 | 0.804 | 0.78 | 0.84 | 0.716 | 0.561 | 0.527 | 0.412
NCI-H1734 | 0.627 | 0.611 | 0.549 | 0.315 | 0.563 | 0.543 | 0.616 | 0.674 | 0.653 | 0.749 | 0.873 | 0.89 | 0.85 | 0.724 | 0.704 | 0.673 | 0.702 | 0.642
NCI-H596 | 0.643 | 0.592 | 0.747 |  | 0.709 | 0.838 | 0.763 | 0.784 | 0.736 | 0.73 | 0.417 | 0.638 | 0.589 | 0.539 | 0.448 | 0.421 | 0.407 | 0.471
NCI-H1944 | 0.409 | 0.368 | 0.397 | 0.26 | 0.384 | 0.41 | 0.413 | 0.546 | 0.423 | 0.435 | 0.555 | 0.603 | 0.522 | 0.876 | 0.822 | 0.822 | 0.789 | 0.758
LK-2 | 0.295 | 0.176 | 0.212 |  | 0.249 | 0.264 | 0.284 | 0.223 | 0.209 | 0.304 | 0.26 | 0.363 | 0.126 | 1.12 | 0.946 | 1.16 | 1.07 | 1.12
HCC-15 | 0.695 | 0.632 | 0.681 |  | 0.619 | 0.677 | 0.682 | 0.694 | 0.693 | 0.844 | 0.871 | 0.845 | 0.877 | 1.04 | 0.884 | 0.924 | 0.874 | 0.797
NCI-H727 | 0.832 | 0.68 | 0.719 | 0.676 | 0.852 | 0.613 | 0.579 | 0.816 | 0.815 | 1.25 | 1.08 | 1.29 | 1.18 | 0.511 | 0.463 | 0.654 | 0.515 | 0.684
HOP-62 | 0.819 | 0.76 | 0.852 | 0.745 | 0.821 | 0.816 | 0.912 | 0.831 | 0.773 | 0.606 | 0.635 | 0.733 | 0.6 | 0.956 | 1.1 | 1.02 | 1.11 | 1.16
NCI-H3122 | 1.2 | 1.14 | 1.06 |  | 1.1 | 0.856 | 1.02 | 1.05 | 0.981 | 0.717 | 0.994 | 1.05 | 1.12 | 0.965 | 0.735 | 0.844 | 0.731 | 0.782
NCI-H1395 | 0.637 | 0.739 | 0.685 | 0.389 | 0.588 | 0.603 | 0.57 | 0.71 | 0.694 | 0.668 | 0.597 | 0.842 | 0.792 | 1.11 | 1.14 | 1.04 | 1.04 | 0.983
NCI-H647 | 0.597 | 0.611 | 0.586 | 0.574 | 0.501 | 0.631 | 0.68 | 0.66 | 0.589 | 0.572 | 0.739 | 0.632 | 0.635 | 1.12 | 1.31 | 1.16 | 1.26 | 1.08
NCI-H650 |  | 0.508 | 0.503 | 0.488 | 0.421 | 0.513 | 0.58 | 0.505 | 0.543 | 0.433 | 0.437 | 0.434 | 0.546 | 1.1 | 1.19 | 1.18 | 1.21 | 1.18
EKVX | 0.609 | 0.798 | 0.832 | 0.761 | 0.727 | 0.646 | 0.72 | 0.734 | 0.718 | 0.78 | 0.82 | 0.861 | 0.737 | 0.72 | 0.846 | 0.952 | 0.832 | 0.685
NCI-H460 | 0.748 | 0.602 | 0.746 | 0.633 | 0.897 | 0.496 | 0.833 | 0.775 | 0.676 | 0.484 | 1.01 | 0.787 | 0.683 | 0.716 | 0.441 | 0.477 | 0.356 | 0.286
LCLC-97TM1 | 0.69 | 0.587 | 0.625 | 0.384 | 0.701 | 0.57 | 0.508 | 0.519 | 0.531 | 0.749 | 0.701 | 0.909 | 0.653 |  | 0.276 | 0.271 | 0.238 | 0.292
COR-L23 | 0.775 | 0.838 | 0.755 | 0.748 | 0.669 | 0.691 | 1.01 | 0.761 | 0.73 | 0.455 | 0.56 | 0.631 | 0.447 | 0.784 | 0.759 | 0.743 | 0.807 | 0.793

From the supplement of paper PMC10307832
